Test system: A15T3 dsDNA (DNA, duplex) AAAAAAAAAAAAAAATCGTCGTCGTCGTCGTCGAAAAAAAAAAAAAAAAAGCAGTTGATCGTTTGGATACCCTGG/TTCGACGACGACGACGACGATTT
Assay: fluorescence quenching, log[(F0-F)/F] against log[DNA]
Conditions: unit not given; free DNA presumed to be A15T3 dsDNA; buffer of titration not stated

K: 0.026
Compound: COc1cccc2c1C(=O)c1c(O)c3c(c(O)c1C2=O)C[C@@](O)(C(=O)CO)C[C@@H]3O[C@H]1C[C@H](N)[C@H](O)[C@H](C)O1

— PMC8308135 (2021)
